{
  "source": "PubChem BioAssay AID540269",
  "about": "(Sanford-Burnham Center for Chemical Genomics, 2011)",
  "note": "Activity calls are given as the source filed them. No rule for the calls is given here.",
  "data": [
    {"molecular_target": "glucose-6-phosphate dehydrogenase-6-phosphogluconolactonase (Plasmodium falciparum 3D7)", "test": "PfG6PD enzyme inhibitors, kinetic NADPH readout, dose response, orthogonal assay, biochemical, kinetic NADPH detection (AID 540269)", "details": "purified PfG6PD-6PGL", "values": [
      {"smiles": "O=C(O)c1ccccc1NS(=O)(=O)c1cccc(-n2sc3ccccc3c2=O)c1", "IC50": "15.3 µM"},
      {"smiles": "CCOC(=O)c1c(OCC)[nH]c2c1cc(O)c1ccccc12", "IC50": "> 80 µM (inactive)"},
      {"smiles": "CCCCCCCCSC1=CC(=O)C(OC)=C(OC)C1=O", "IC50": "> 80 µM (inactive)"},
      {"smiles": "COc1cccc(C(=O)Nc2nnc(S(=O)(=O)N(C)Cc3ccccc3)s2)c1", "IC50": "18.6 µM"},
      {"smiles": "C#CCCc1cscc1/C=[N+](\\[O-])c1ccc(C(=O)OCC)cc1", "IC50": "36.4 µM"},
      {"smiles": "Cc1cc(C)c(S(=O)(=O)/N=C2/C=C(SCC(=O)O)C(=O)c3ccccc32)cc1C", "IC50": "> 80 µM (inactive)"},
      {"smiles": "Oc1ccc(C23CC4CC(CC(C4)C2)C3)cc1O", "IC50": "37.8 µM"},
      {"smiles": "O=C1NC(=S)NC(=O)C1=Cc1ccc(Br)s1", "IC50": "> 80 µM (inactive)"},
      {"smiles": "CN1CCc2cc(O)cc3c2[C@H]1Cc1ccc(O)c(O)c1-3", "IC50": "> 80 µM (inactive)"},
      {"smiles": "O=C(Cn1sc2ccccc2c1=O)Nc1ccc(F)cc1", "IC50": "13.8 µM"},
      {"smiles": "CCc1cc(-c2n[nH]c(C)c2-c2ccccc2Cl)c(O)cc1OC", "IC50": "> 80 µM (inactive)"},
      {"smiles": "Cc1ccc(S(=O)(=O)SCCCSS(=O)(=O)c2ccc(C)cc2)cc1", "IC50": "35.6 µM"},
      {"smiles": "O=C1OC(c2ccc3ccccc3c2O)(c2ccc3ccccc3c2O)c2ccccc21", "IC50": "> 80 µM (inactive)"},
      {"smiles": "CCOC(=O)c1cnc2ccc(C)cc2c1Sc1ccccc1C(=O)OC", "IC50": "> 80 µM (inactive)"},
      {"smiles": "[O-]/[N+](=C\\c1ccccc1)c1ccc(Br)cc1", "IC50": "> 80 µM (inactive)"},
      {"smiles": "COc1cc(/C=C2\\SC(c3ccc(C)cc3)=NC2=O)ccc1O", "IC50": "> 80 µM (inactive)"},
      {"smiles": "CCOc1cc(NCc2ccccc2)c2ncn(C(C)C)c2c1", "IC50": "> 80 µM (inactive)"},
      {"smiles": "CCOc1cc(CNc2ccc(N3CCCC3)cc2)cc(Cl)c1OC", "IC50": "> 80 µM (inactive)"},
      {"smiles": "COc1cc(NCCCn2ccc(NC(=O)OCc3ccccc3)nc2=O)cc(OC)c1OC", "IC50": "> 80 µM (inactive)"},
      {"smiles": "Cn1c(=O)[nH]c(=O)c2c1nc(SCCN1CCCCC1)n2CCCc1ccccc1", "IC50": "56.7 µM"},
      {"smiles": "O=C(CCSCCC(=O)NN=Cc1ccccc1)NN=Cc1ccccc1", "IC50": "> 80 µM (inactive)"},
      {"smiles": "CCC(C)c1ccccc1OCCn1ccnc1", "note": "(centres undefined)", "IC50": "> 80 µM (inactive)"},
      {"smiles": "COc1cccc(-c2c(C(=O)N/N=C/c3ccc(C)s3)nnn2-c2nonc2N)c1", "IC50": "53.5 µM"},
      {"smiles": "COc1cc(NC(C)CCc2ccccc2)cc(OC)c1OC", "note": "(centres undefined)", "IC50": "> 80 µM (inactive)"},
      {"smiles": "COc1ccc(C(=O)c2c(C(F)(F)F)oc3c2C(=O)c2ccccc2C3=O)cc1OC", "IC50": "> 80 µM (inactive)"},
      {"smiles": "CC1CCc2c(nc3sc4c(c3c2N)CCCC4)C1", "note": "(centres undefined)", "IC50": "> 80 µM (inactive)"},
      {"smiles": "Cc1cc(C)nc(SSc2nc(C)cc(C)n2)n1", "IC50": "68 µM"},
      {"smiles": "Cc1cc(C)c2c(=O)n(CC(=O)Nc3cccc(Cl)c3C)sc2n1", "IC50": "49.6 µM"},
      {"smiles": "C=CCSc1nc2sc3c(c2c(=O)n1CC)CCc1ccccc1-3", "IC50": "> 80 µM (inactive)"},
      {"smiles": "CC1(C)Nc2ccc(O)cc2-c2c1ssc2=S", "IC50": "> 80 µM (inactive)"},
      {"smiles": "c1nc(SSc2ncnc3nc[nH]c23)c2[nH]cnc2n1", "IC50": "27 µM"},
      {"smiles": "COc1ccc(-c2cn3cc(C)ccc3n2)cc1Br", "IC50": "> 80 µM (inactive)"},
      {"smiles": "COc1cc(NCc2ccccc2)c2ncn(Cc3ccccc3)c2c1", "IC50": "> 80 µM (inactive)"},
      {"smiles": "Cn1c(=O)[nH]c(=O)c2c1[nH]c(=S)n2CCCc1ccccc1", "IC50": "43.7 µM"},
      {"smiles": "CCCCOc1ccc(Cc2n[nH]c(=S)n2N)cc1", "IC50": "> 80 µM (inactive)"},
      {"smiles": "Cc1ccc(Cl)cc1NC1=C/C(=N\\S(=O)(=O)c2cccs2)c2ccccc2C1=O", "IC50": "> 80 µM (inactive)"},
      {"smiles": "Cc1ccc(NC(=O)Cn2sc3nc(C)cc(C)c3c2=O)c(Cl)c1", "IC50": "> 80 µM (inactive)"},
      {"smiles": "Cc1ccc2nc(SCC(=O)NC3CCCc4ccccc43)[nH]c2c1", "note": "(centres undefined)", "IC50": "> 80 µM (inactive)"},
      {"smiles": "C=CCOc1ccc(CNc2ccc3[nH]c(=O)[nH]c3c2)cc1OC", "IC50": "> 80 µM (inactive)"},
      {"smiles": "O=C(COc1ccccc1F)OCC(=O)c1ccc([N+](=O)[O-])cc1", "IC50": "> 80 µM (inactive)"},
      {"smiles": "CCOC(=O)c1c2ccc(OCC(=O)NN)cc2n2ccccc12", "IC50": "9.4 µM"},
      {"smiles": "Oc1ccc(C2C[C@H]3CC[C@@H]2C3)cc1O", "note": "(some centres undefined)", "IC50": "48.6 µM"},
      {"smiles": "O=C(Nc1nnc(S(=O)(=O)N2CCOCC2)s1)c1ccc(F)cc1", "IC50": "56.9 µM"},
      {"smiles": "COc1cc(C(=O)O/N=C2\\C=CC(=O)C=C2C)cc(OC)c1OC", "IC50": "> 80 µM (inactive)"},
      {"smiles": "COc1ccc2ccccc2c1C1CC(=O)N2CN(C3CCCCC3)CSC2=C1C#N", "note": "(centres undefined)", "IC50": "> 80 µM (inactive)"},
      {"smiles": "Cc1ccc(-c2nc(N)s[n+]2-c2ccccc2)cc1", "IC50": "> 80 µM (inactive)"},
      {"smiles": "Cc1cc(C)c2sc(NC(=O)C3=COCCO3)nc2c1", "IC50": "30.2 µM"},
      {"smiles": "CC(NC(=O)c1sc2cc([N+](=O)[O-])ccc2c1Cl)C(C)(C)C", "note": "(centres undefined)", "IC50": "> 80 µM (inactive)"},
      {"smiles": "Cc1ccc(-n2c(N)c(C(=O)N3CCN(C)CC3)sc2=S)cc1", "IC50": "70.6 µM"},
      {"smiles": "CC(C)c1nnc(NC(=O)c2cc3ccccc3o2)s1", "IC50": "31.2 µM"},
      {"smiles": "COc1ccc(CN(C)S(=O)(=O)c2nnc(NC(=O)c3cccc(C)c3)s2)cc1OC", "IC50": "22.2 µM"},
      {"smiles": "O=C(Cn1sc2ccccc2c1=O)Nc1ccccc1", "IC50": "14.3 µM"},
      {"smiles": "O=C(Nc1ccccn1)c1sc2cc([N+](=O)[O-])ccc2c1Cl", "IC50": "> 80 µM (inactive)"},
      {"smiles": "CCOC(=O)Nc1ccc(NCc2ccc(F)cc2)nc1N", "IC50": "> 80 µM (inactive)"}
    ]}
  ]
}
